From EP0017970A1, “Novel beta-lactam derivatives and process for production thereof” (SANRAKU-OCEAN CO., LTD., priority 1979, dated 1980)
In brackets after ≈: the same amount, converted by molar mass.

What was measured:
Proteus vulgaris GN76 = assay: MIC, agar dilution assay; type: cell-based; details: 35°C for 20 hours, read-out: Antibiotic Activity minimum inhibitory concentration
Protocol: (§1) The antibiotic activities shown in Tables 1-1 to 1-9 above were determined in the following manner. The minimum inhibitory concentrations of the compounds of formula (VI-b) in Tables I-1 to 1-8 and the known compounds in Table 1-9 on the various microorganisms shown in the above tables were measured by an agar dilution assay method using a brain heart infusion agar medium "Difco" (a product of Difco Laboratories Inc.). A sample of the test compound was dissolved in sterile distilled water and diluted to prepare a twofold dilution series of the compound solution. In a betri dish of 9 cm in diameter, 1 ml of the compound solution was added to 9 ml of a molten sterile heart infusion agar medium (Difco Laboratories Inc.) at. about 60°C to prepare an agar plate containing the compound. An overnight culture of each test organism indicated in the above table, which was prepared by stationary cultivation in trypto-soy broth (Eiken Chemi. Co., Ltd.) at 35°C for 18 to 20 hours, was diluted with the trypto-soy broth to give approximately 10^8 cells/ml and the diluted inoculum was inoculated in the agar plate. After cultivating the plate at 35°C for 20 hours, the growth of the organism was observed. The minimum concentration of the compound at which no growth of the microorganism was noted was determined, and defined as the minimum inhibitory concentration of the test compound.

[1] = system: Bacillus subtilis ATCC 6633; assay: MIC, agar dilution assay; type: cell-based; details: Bacillus subtilis, ATCC6633, 20 h, 35°C for 20 hours, read-out: Antibiotic Activity minimum inhibitory concentration
Protocol: as §1

Escherichia coli RGN 823 = assay: MIC, agar dilution assay; type: cell-based; details: RGN823, 20 h, 35°C for 20 hours, read-out: Antibiotic Activity minimum inhibitory concentration
Protocol: as §1

[2] = system: Pseudomonas aeruginosa NCTC10490; assay: MIC, agar dilution assay; type: cell-based; details: 35°C for 20 hours, read-out: Antibiotic Activity minimum inhibitory concentration
Protocol: as §1

Enterobacter cloacae 45 = assay: MIC, agar dilution assay; type: cell-based; details: Enterobacter cloacae, 45, 20 h, 35°C for 20 hours, read-out: Antibiotic Activity minimum inhibitory concentration
Protocol: as §1

Providencia sp. P8 = assay: MIC, agar dilution assay; type: cell-based; details: Providencia, SP.P8, 20 h, 35°C for 20 hours, read-out: Antibiotic Activity minimum inhibitory concentration
Protocol: as §1

Escherichia coli K-12 = assay: MIC, agar dilution assay; type: cell-based; details: Escherichia coli, K12, 20 h, 35°C for 20 hours, read-out: Antibiotic Activity minimum inhibitory concentration
Protocol: as §1

Serratia marcescens T55 = assay: MIC, agar dilution assay; type: cell-based; details: Serratia marcescens, T55, 20 h, 35°C for 20 hours, read-out: Antibiotic Activity minimum inhibitory concentration
Protocol: as §1

Proteus mirabilis P6 = assay: MIC, agar dilution assay; type: cell-based; details: P6, 20 h, 35°C for 20 hours, read-out: Antibiotic Activity minimum inhibitory concentration
Protocol: as §1

[3] = system: Citrobacter freundii GN 346; assay: MIC, agar dilution assay; type: cell-based; details: GN346, 20 h, 35°C for 20 hours, read-out: Antibiotic Activity minimum inhibitory concentration
Protocol: as §1

Alcaligenes faecalis A 1 = assay: MIC, agar dilution assay; type: cell-based; details: Alcaligenes faecalis, A1, 20 h, 35°C for 20 hours, read-out: Antibiotic Activity minimum inhibitory concentration
Protocol: as §1

Enterobacter sp. E8 = assay: MIC, agar dilution assay; type: cell-based; details: Enterobacter, SP.E8, 20 h, 35°C for 20 hours, read-out: Antibiotic Activity minimum inhibitory concentration
Protocol: as §1

[4] = system: Pseudomonas aeruginosa IFO3445; assay: MIC, agar dilution assay; type: cell-based; details: 35°C for 20 hours, read-out: Antibiotic Activity minimum inhibitory concentration
Protocol: as §1

[5] = system: Comamonas terrigena B-996; assay: MIC, agar dilution assay; type: cell-based; details: Comamonas terrigena, B996, 20 h, 35°C for 20 hours, read-out: Antibiotic Activity minimum inhibitory concentration
Protocol: as §1

[6] = system: Staphylococcus aureus FDA 209P; assay: MIC, agar dilution assay; type: cell-based; details: Staphylococcus aureus, FDA209P, 20 h, 35°C for 20 hours, read-out: Antibiotic Activity minimum inhibitory concentration
Protocol: as §1

[7] = system: Staphylococcus epidermidis; assay: MIC, agar dilution assay; type: cell-based; details: 20 h, 35°C for 20 hours, read-out: Antibiotic Activity minimum inhibitory concentration
Protocol: as §1

[8] = system: Staphylococcus aureus Smith; assay: MIC, agar dilution assay; type: cell-based; details: Staphylococcus aureus, 20 h, 35°C for 20 hours, read-out: Antibiotic Activity minimum inhibitory concentration
Protocol: as §1

[9] = system: Klebsiella pneumoniae K-13; assay: MIC, agar dilution assay; type: cell-based; details: K13, 35°C for 20 hours, read-out: Antibiotic Activity minimum inhibitory concentration
Protocol: as §1

[10] = system: Staphylococcus aureus Russell; assay: MIC, agar dilution assay; type: cell-based; details: Staphylococcus aureus, 20 h, 35°C for 20 hours, read-out: Antibiotic Activity minimum inhibitory concentration
Protocol: as §1

Sarcina lutea = assay: MIC, agar dilution assay; type: cell-based; details: Micrococcus luteus, 20 h, 35°C for 20 hours, read-out: Antibiotic Activity minimum inhibitory concentration
Protocol: as §1

Proteus rettgeri P7 = assay: MIC, agar dilution assay; type: cell-based; details: Providencia rettgeri, P7, 20 h, 35°C for 20 hours, read-out: Antibiotic Activity minimum inhibitory concentration
Protocol: as §1

Serratia marcescens S18 = assay: MIC, agar dilution assay; type: cell-based; details: Serratia marcescens, S18, 20 h, 35°C for 20 hours, read-out: Antibiotic Activity minimum inhibitory concentration
Protocol: as §1

[11] = system: Enterobacter aerogenes E19; assay: MIC, agar dilution assay; type: cell-based; details: Klebsiella aerogenes, E19, 20 h, 35°C for 20 hours, read-out: Antibiotic Activity minimum inhibitory concentration
Protocol: as §1

Proteus sp. P22 = assay: MIC, agar dilution assay; type: cell-based; details: 35°C for 20 hours, read-out: Antibiotic Activity minimum inhibitory concentration
Protocol: as §1

S. aureus = assay: Disc diffusion assay in nutrient broth containing 10% horse serum; type: cell-based
Excerpt: The compounds of formula (I) provided by this invention show excellent antimicrobial activities in in vitro tests in horse serum as shown in Table IV below.

[12] = system: Staphylococcus aureus Smith strain; assay: Infection treating test (CD50); type: in vivo; details: in Mus musculus, sc, 2 h, mice infected intraperitoneally with 5 x 10^5 cells per mouse, subcutaneous injection two hours after the infection
Protocol: The in vivo activities of the compounds of formula (VI-b) were determined by using mice (five per group, male DDY mice, Shizuoka) which had been intraperitoneally infected with Staphylococcus aureus Smith strain in an amount of 5 x 10^5 cells per mouse. Two hours after the infection, an injection containing a sodium salt of each of the compounds of formula (VI-b) was subcutaneously administered to the mice.

[13] = Test for concentration in blood (plasma of mouse, bioassay); type: in vivo; details: sc, subcutaneous, 2 mg/mouse, average on five mice
Protocol: Typical species of the compounds of formula (VI-b) were each administered subcutaneously to five mice in a dose of 2 mg. After 5 minutes from the administration, a small amount of blood was periodically drawn from the eyes of the mice into a heparinized capillary tube, and centrifuged. The concentration of the compound in the supernatant liquid (plasma) was determined by a bioassay method using Comamonas terri^gena B-996.

| Structure (SMILES) | MIC [1] | MIC (Escherichia coli RGN 823) | MIC (Enterobacter cloacae 45) | MIC (Escherichia coli K-12) | MIC (Proteus mirabilis P6) | MIC [3] | MIC (Alcaligenes faecalis A 1) | MIC (Enterobacter sp. E8) | MIC [5] | MIC [6] | MIC [7] | MIC [8] | MIC [9] | MIC [10] | MIC (Sarcina lutea) | MIC [11] | Inhibitory zone diameter (S. aureus) | further results |
| --- | --- | --- | --- | --- | --- | --- | --- | --- | --- | --- | --- | --- | --- | --- | --- | --- | --- | --- |
| CC(C)C1C(=O)N2C(C(=O)O)=C(Sc3ccncc3)CC12 (stereo not shown) [Table I-1 R1=-CH3] | 0.013 µg/mL (≈ 0.0427 µM) | 12.5 µg/mL (≈ 41.1 µM) | 50 µg/mL (≈ 164 µM) | 3.13 µg/mL (≈ 10.3 µM) | 3.13 µg/mL (≈ 10.3 µM) | 50 µg/mL (≈ 164 µM) | 0.013 µg/mL (≈ 0.0427 µM) | 1.56 µg/mL (≈ 5.13 µM) | 0.007 µg/mL (≈ 0.023 µM) | 0.007 µg/mL (≈ 0.023 µM) | 0.013 µg/mL (≈ 0.0427 µM) | 0.013 µg/mL (≈ 0.0427 µM) | 25 µg/mL (≈ 82.1 µM) | 0.013 µg/mL (≈ 0.0427 µM) | 0.013 µg/mL (≈ 0.0427 µM) | 12.5 µg/mL (≈ 41.1 µM) |  | MIC (Proteus vulgaris GN76): 50 µg/mL (≈ 164 µM); MIC [2]: 1.56 µg/mL (≈ 5.13 µM); MIC (Providencia sp. P8): 3.13 µg/mL (≈ 10.3 µM); MIC (Serratia marcescens T55): 100 µg/mL (≈ 329 µM); MIC [4]: 1.56 µg/mL (≈ 5.13 µM); MIC (Proteus rettgeri P7): 1.56 µg/mL (≈ 5.13 µM); MIC (Serratia marcescens S18): 50 µg/mL (≈ 164 µM); MIC (Proteus sp. P22): 50 µg/mL (≈ 164 µM) |
| CCC1C(=O)N2C(C(=O)OCc3ccccc3)=C(Br)CC12 (stereo not shown) [Table IV r5 R=H X=Br M=[drawing]] |  |  |  |  |  |  |  |  |  |  |  |  |  |  |  |  | 30.2 mm |  |
| CCC1C(=O)N2C(C(=O)OCc3ccccc3)=C(I)CC12 (stereo not shown) [Table IV r10 R=H X=I M=[drawing]] |  |  |  |  |  |  |  |  |  |  |  |  |  |  |  |  | 30.0 mm |  |
| CCC1C(=O)N2C(C(=O)O)=C(Sc3ccncc3)CC12 (stereo not shown) [Table I-1 R1=H] | < 0.007 µg/mL | 14.8 µg/mL (≈ 51 µM) | 29.5 µg/mL (≈ 102 µM) | 0.92 µg/mL (≈ 3.17 µM) | 1.8 µg/mL (≈ 6.2 µM) | 29.5 µg/mL (≈ 102 µM) | < 0.007 µg/mL | 0.46 µg/mL (≈ 1.58 µM) | < 0.007 µg/mL | < 0.007 µg/mL | < 0.007 µg/mL | < 0.007 µg/mL | 14.8 µg/mL (≈ 51 µM) | < 0.007 µg/mL | < 0.007 µg/mL | 7.4 µg/mL (≈ 25.5 µM) |  | MIC (Proteus vulgaris GN76): 29.5 µg/mL (≈ 102 µM); MIC [2]: 0.92 µg/mL (≈ 3.17 µM); MIC (Providencia sp. P8): 0.92 µg/mL (≈ 3.17 µM); MIC (Serratia marcescens T55): 29.5 µg/mL (≈ 102 µM); MIC [4]: 0.92 µg/mL (≈ 3.17 µM); MIC (Proteus rettgeri P7): 1.8 µg/mL (≈ 6.2 µM); MIC (Serratia marcescens S18): 29.5 µg/mL (≈ 102 µM); MIC (Proteus sp. P22): 29.5 µg/mL (≈ 102 µM) |
| CCC1C(=O)N2C(C(=O)OC)=C(I)CC12 (stereo not drawn) [Table IV r9 R=H X=I M=CH3, methyl 3-iodo-6-ethyl-7-oxo-l-azabicyclo[3.2.0]hept-2-ene-2-carboxylate] |  |  |  |  |  |  |  |  |  |  |  |  |  |  |  |  | 29.6 mm |  |
| CC(=O)NCCSC1=C(C(=O)O)N2C(=O)C(C(C)C)C2C1 (stereo not shown) [PS-6.Na, 3-(2-acetamidoethylthio)-6-isopropyl-7-oxo-1-azabicyclo[3.2.0]hept-2-ene-2-carboxylic acid, reference compound] |  |  |  |  |  |  |  |  |  |  |  |  |  |  |  |  |  | ED50 [12]: 8 mg/kg; Cmax ([13]; bioassay with Comamonas terrigena B-996, read-out: Maximum concentration): 23800 ng/mL; half-life ([13]; read-out: Half period (period that elapsed until the concentration was reduced to half)): 5 min |
| CCC1C(=O)N2C(C(=O)O)=C(Sc3ccccn3)CC12 (stereo not shown) [Table I-2 R1=H] | 0.012 µg/mL (≈ 0.0413 µM) | 6.25 µg/mL (≈ 21.5 µM) | 50 µg/mL (≈ 172 µM) | 6.25 µg/mL (≈ 21.5 µM) | 3.13 µg/mL (≈ 10.8 µM) | 25 µg/mL (≈ 86.1 µM) | 0.1 µg/mL (≈ 0.344 µM) | 12.5 µg/mL (≈ 43.1 µM) | 0.003 µg/mL (≈ 0.0103 µM) | 0.006 µg/mL (≈ 0.0207 µM) | 0.012 µg/mL (≈ 0.0413 µM) | 0.012 µg/mL (≈ 0.0413 µM) | 25 µg/mL (≈ 86.1 µM) | 0.012 µg/mL (≈ 0.0413 µM) | 0.0008 µg/mL (≈ 0.00276 µM) | 25 µg/mL (≈ 86.1 µM) |  |  |
